# In patent US20220389437A1, “METHODS OF IN PLANTA TRAN[…] AXILLARY MERISTEM” (SYNGENTA CROP PROTECTION AG, priority 2019, published 2022):
# System: non-transgenic plants (soybean seedlings), wounded axillary areas
# Assay: Glyphosate top selection dose finding: suppression of axillary meristem regeneration
# Format: in vivo
# Settings: 10, 25, 50, 75, 100 or 200 uM applied on the wounded axillary areas, non-lethal but sufficient to suppress regeneration within 2 weeks
# Description: 1) Germination: Soybean seeds were sown in 2.5 inch pots, two seeds in each pot. 4-7 day old seedlings grown from the seeds were used for cotyledon axillary meristem transformation.
# 2) Wound axillary meristems: The axillary meristems located in the axil of cotyledons were completely removed. The stem cells located in the base of the axillary meristem were transformed using Agrobacterium as described below. To break the dormancy of the axillary meristem, the primary shoot meristem was removed at the same time, or 3-7 days' later.
# 5) Selection: To determine the glyphosate concentrations effectively suppressing axillary meristem regeneration in top selection, non-transgenic plants were used and 10 uM to 200 uM glyphosate (specifically 10, 25, 50, 75, 100, or 200 uM glyphosate) was applied on the wounded axillary areas.
compound,measurement,value
O=C(O)CNCP(=O)(O)O [glyphosate],glyphosate concentrations effectively suppressing axillary meristem regeneration in top selection,75 to 200 µM
